Experimental data taken from ChEMBL document CHEMBL4152229, “Synthesis and biological evaluation of 2,6-disubstituted-9H-purine, 2,4-disubstitued-thieno[3,2-d]pyrimidine and -7H-pyrrolo[2,3-d]pyrimidine analogues as novel CHK1 inhibitors” (Eur J Med Chem, 2018).

Legend:
[1] = biological target: T1, Serine/threonine-protein kinase 3 (Homo sapiens) (UniProt Q13188); experiment: Inhibition of DNA-tagged STK3 (unknown origin) expressed in HEK293 cells at 10 uM after 1 hr by real-time fluorescent quantitative PCR analysis; type: cell-based
T1 sequence (whole entry): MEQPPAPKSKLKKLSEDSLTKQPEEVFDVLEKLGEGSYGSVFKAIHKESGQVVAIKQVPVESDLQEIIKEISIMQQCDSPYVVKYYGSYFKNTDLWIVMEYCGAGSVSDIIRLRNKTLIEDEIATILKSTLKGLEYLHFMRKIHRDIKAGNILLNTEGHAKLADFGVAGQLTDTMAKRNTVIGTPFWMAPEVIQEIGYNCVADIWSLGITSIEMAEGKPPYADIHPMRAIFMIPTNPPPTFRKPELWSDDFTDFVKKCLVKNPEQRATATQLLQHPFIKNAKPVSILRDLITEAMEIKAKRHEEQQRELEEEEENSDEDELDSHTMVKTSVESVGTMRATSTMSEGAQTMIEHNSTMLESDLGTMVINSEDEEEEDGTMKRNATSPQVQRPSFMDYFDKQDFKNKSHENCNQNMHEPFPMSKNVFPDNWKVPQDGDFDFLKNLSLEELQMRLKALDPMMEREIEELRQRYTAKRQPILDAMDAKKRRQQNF

[2] = biological target: Tyrosine-protein kinase BTK (Homo sapiens) (UniProt Q06187); experiment: Inhibition of DNA-tagged BTK (unknown origin) expressed in HEK293 cells at 10 uM after 1 hr by real-time fluorescent quantitative PCR analysis; type: cell-based
Chain of Tyrosine-protein kinase BTK (Homo sapiens) (Q06187 whole entry): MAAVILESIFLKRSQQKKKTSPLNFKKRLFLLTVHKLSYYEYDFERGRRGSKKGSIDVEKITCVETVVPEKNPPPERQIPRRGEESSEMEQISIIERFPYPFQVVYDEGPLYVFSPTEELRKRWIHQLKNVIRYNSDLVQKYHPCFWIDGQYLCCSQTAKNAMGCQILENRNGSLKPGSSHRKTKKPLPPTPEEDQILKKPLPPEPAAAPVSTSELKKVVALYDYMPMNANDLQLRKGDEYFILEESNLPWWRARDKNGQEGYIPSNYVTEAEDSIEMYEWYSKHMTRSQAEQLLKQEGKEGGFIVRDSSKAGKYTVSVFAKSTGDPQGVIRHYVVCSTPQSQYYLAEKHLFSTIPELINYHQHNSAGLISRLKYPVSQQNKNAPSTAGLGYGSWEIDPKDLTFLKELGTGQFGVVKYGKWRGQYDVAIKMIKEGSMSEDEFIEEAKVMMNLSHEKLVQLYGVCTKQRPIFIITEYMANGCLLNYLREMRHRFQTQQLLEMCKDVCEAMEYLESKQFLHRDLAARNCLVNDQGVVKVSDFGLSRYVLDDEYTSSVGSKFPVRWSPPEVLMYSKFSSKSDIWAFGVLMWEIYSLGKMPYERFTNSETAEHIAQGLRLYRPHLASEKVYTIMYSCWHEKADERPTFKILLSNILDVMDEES

HT-29 [3] = experiment: Potentiation of gemcitabine-induced cell cycle arrest in human HT-29 cells assessed as accumulation at S phase at 10 uM after 48 hrs by propidium iodide/RNase staining-based flow cytometric analysis (reference value: 62.1%); type: functional
HT-29 [4] = experiment: Potentiation of gemcitabine-induced cell cycle arrest in human HT-29 cells assessed as accumulation at G1 phase at 10 uM after 48 hrs by propidium iodide/RNase staining-based flow cytometric analysis (reference value: 62.1%); type: functional
[5] = biological target: T2, Calcium/calmodulin-dependent protein kinase type IV (Homo sapiens) (UniProt Q16566); experiment: Inhibition of DNA-tagged CAMK4 (unknown origin) expressed in HEK293 cells at 10 uM after 1 hr by real-time fluorescent quantitative PCR analysis; type: cell-based
T2 sequence (whole entry): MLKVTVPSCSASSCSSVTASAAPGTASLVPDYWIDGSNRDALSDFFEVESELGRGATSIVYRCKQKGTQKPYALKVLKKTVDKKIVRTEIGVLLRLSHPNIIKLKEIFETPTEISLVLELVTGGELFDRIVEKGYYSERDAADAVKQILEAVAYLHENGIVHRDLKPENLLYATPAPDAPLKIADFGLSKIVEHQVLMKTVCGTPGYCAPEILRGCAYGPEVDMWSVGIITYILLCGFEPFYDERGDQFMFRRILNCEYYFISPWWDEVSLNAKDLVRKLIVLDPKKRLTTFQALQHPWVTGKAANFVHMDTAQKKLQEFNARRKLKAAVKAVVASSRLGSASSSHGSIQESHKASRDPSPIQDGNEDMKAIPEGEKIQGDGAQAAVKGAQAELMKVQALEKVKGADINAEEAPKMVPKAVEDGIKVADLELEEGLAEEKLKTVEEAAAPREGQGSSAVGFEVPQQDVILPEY

[6] = biological target: T3, Serine/threonine-protein kinase Chk1 (Homo sapiens, UniProt O14757); experiment: Inhibition of CHK1 (unknown origin) using Cdc25 peptide as substrate preincubated for 30 mins followed by substrate addition and measured after 60 mins by ADP-Glo kinase assay
T3 sequence (O14757 whole entry): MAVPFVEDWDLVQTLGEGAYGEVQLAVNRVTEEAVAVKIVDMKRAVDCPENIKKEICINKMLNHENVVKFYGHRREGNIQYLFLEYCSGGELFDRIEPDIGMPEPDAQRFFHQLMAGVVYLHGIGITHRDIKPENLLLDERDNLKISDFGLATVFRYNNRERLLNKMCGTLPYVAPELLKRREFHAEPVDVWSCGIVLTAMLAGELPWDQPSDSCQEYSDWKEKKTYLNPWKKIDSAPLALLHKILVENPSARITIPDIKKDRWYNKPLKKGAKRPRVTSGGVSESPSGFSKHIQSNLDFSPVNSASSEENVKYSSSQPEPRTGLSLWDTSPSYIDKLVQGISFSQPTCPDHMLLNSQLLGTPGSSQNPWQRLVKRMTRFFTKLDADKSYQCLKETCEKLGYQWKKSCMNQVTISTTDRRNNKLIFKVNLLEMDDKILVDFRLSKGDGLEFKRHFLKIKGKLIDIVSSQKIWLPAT

[7] = biological target: Epidermal growth factor receptor (Homo sapiens) (UniProt P00533); experiment: Inhibition of DNA-tagged EGFR (unknown origin) expressed in HEK293 cells at 10 uM after 1 hr by real-time fluorescent quantitative PCR analysis; type: cell-based
Chain of Epidermal growth factor receptor (Homo sapiens) (P00533 whole entry): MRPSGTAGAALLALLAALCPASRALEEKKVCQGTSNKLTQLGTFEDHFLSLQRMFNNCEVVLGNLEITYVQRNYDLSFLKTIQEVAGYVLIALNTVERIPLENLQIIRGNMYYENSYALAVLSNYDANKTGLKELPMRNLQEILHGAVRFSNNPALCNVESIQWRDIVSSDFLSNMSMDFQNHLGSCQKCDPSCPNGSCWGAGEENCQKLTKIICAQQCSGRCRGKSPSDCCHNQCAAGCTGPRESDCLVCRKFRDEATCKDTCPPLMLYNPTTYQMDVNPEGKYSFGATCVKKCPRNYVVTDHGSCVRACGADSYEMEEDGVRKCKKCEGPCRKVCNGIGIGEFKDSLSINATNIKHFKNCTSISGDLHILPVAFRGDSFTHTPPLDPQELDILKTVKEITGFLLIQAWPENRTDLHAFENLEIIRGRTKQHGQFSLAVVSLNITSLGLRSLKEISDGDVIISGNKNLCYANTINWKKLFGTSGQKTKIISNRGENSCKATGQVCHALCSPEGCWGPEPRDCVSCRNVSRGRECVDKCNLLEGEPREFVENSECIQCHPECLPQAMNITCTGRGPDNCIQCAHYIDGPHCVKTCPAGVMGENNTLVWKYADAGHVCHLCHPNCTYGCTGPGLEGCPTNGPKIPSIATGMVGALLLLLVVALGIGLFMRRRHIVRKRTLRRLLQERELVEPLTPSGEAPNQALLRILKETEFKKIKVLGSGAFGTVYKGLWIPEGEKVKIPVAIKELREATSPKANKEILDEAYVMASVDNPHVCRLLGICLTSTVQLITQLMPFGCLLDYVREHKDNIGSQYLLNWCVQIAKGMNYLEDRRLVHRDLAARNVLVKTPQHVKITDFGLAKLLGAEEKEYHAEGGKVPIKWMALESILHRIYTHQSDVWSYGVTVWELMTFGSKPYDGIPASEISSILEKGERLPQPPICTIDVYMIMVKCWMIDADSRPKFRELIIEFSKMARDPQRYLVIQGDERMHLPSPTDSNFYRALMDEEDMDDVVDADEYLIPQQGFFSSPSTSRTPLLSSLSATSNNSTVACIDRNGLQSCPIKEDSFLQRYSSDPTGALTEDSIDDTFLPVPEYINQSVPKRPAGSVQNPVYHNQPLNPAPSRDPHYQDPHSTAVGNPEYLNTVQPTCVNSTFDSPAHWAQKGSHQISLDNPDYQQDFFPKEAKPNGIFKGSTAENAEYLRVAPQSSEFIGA

[8] = biological target: Cyclin-dependent kinase 2 (Homo sapiens) (UniProt P24941); experiment: Inhibition of DNA-tagged CDK2 (unknown origin) expressed in HEK293 cells at 10 uM after 1 hr by real-time fluorescent quantitative PCR analysis; type: cell-based
[9] = biological target: Glycogen synthase kinase-3 beta (Homo sapiens) (UniProt P49841); experiment: Inhibition of DNA-tagged GSK3beta (unknown origin) expressed in HEK293 cells at 10 uM after 1 hr by real-time fluorescent quantitative PCR analysis; type: cell-based
Chain of Glycogen synthase kinase-3 beta (Homo sapiens) (P49841 whole entry, looked up): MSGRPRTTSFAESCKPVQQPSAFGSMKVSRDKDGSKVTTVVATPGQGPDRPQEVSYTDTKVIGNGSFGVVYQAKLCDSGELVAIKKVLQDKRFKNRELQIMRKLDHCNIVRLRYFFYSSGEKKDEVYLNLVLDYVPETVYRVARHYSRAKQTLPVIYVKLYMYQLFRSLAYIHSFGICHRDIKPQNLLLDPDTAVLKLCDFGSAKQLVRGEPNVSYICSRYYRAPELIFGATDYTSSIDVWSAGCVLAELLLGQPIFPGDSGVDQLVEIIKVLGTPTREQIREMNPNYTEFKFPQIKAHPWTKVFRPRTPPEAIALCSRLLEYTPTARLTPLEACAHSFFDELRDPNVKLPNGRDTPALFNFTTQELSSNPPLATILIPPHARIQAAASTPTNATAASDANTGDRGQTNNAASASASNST

[10] = biological target: T4, Serine/threonine-protein kinase Chk1 (Homo sapiens) (UniProt O14757); experiment: Inhibition of CHK1 (unknown origin) at 10 uM using Cdc25 peptide as substrate preincubated for 30 mins followed by substrate addition and measured after 60 mins by ADP-Glo kinase assay
T4 sequence (whole entry): T3 sequence (O14757 whole entry)

HT-29 [11] = experiment: Potentiation of gemcitabine-induced cell cycle arrest in human HT-29 cells assessed as accumulation at G2 phase at 10 uM after 48 hrs by propidium iodide/RNase staining-based flow cytometric analysis (reference value: 62.1%); type: functional
[12] = biological target: RAC-alpha serine/threonine-protein kinase (Homo sapiens) (UniProt P31749); experiment: Inhibition of DNA-tagged AKT1 (unknown origin) expressed in HEK293 cells at 10 uM after 1 hr by real-time fluorescent quantitative PCR analysis; type: cell-based
Chain of RAC-alpha serine/threonine-protein kinase (Homo sapiens) (P31749 whole entry): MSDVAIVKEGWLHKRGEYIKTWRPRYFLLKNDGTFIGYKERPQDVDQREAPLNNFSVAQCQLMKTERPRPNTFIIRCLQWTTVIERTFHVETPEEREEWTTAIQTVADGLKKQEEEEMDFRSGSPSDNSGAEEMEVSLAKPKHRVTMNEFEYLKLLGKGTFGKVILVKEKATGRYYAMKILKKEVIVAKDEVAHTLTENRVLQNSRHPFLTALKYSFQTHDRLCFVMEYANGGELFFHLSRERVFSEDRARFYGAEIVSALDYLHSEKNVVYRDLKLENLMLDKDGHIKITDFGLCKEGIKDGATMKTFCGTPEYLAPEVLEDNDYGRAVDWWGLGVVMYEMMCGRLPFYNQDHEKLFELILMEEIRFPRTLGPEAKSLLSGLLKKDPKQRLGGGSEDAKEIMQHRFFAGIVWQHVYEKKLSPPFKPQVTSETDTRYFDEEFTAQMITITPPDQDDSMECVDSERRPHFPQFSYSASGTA

What does the source list for `Fc1ccc(Nc2nc(N3CCOCC3)c3nc[nH]c3n2)cc1`?
inhibition [1]: 44%; inhibition [2]: 35%; Activity (HT-29 [3]): 61%; Activity (HT-29 [4]): 13.8%; inhibition [5]: 0%; IC50 [6]: 0.684 µM; inhibition [7]: 0%; inhibition [8]: 73%; inhibition [9]: 47%; inhibition [10]: 89.9%; Activity (HT-29 [11]): 25.2%; inhibition [12]: 0%
